{
  "source": "patent US20200390729A1",
  "about": "“OPHTHALMIC TOPICAL COMPOSITION COMPRISING DOBESILIC ACID FOR TREATING DISEASES OF THE POSTERIOR SEGMENT OF THE EYE” (LABORATORIOS SALVAT, S.A., priority 2017, published 2020)",
  "assay": "Ocular distribution of CDO in rats, single dose topical ocular vs. oral",
  "type": "in vivo, Sprague Dawley (SD) rat",
  "settings": "Sprague Dawley, rat",
  "method": "In Sprague Dawley (SD) rat, weighing approximately 200 g, CDO was administered by topical ocular instillation (10 μl/eye) at 10 mg/ml (composition 2 of Example 1), at 100 mg/ml (composition 5 of Example 1) or by oral gavage at 50 mg/kg, at 200 mg/kg or at 750 mg/kg in aqueous solution (from compositions 1, 3 and 4, respectively, of Example 1). At 15, 60, 180 and 360 minutes post-administration, animals were euthanized and plasma and ocular tissues including sclera, cornea, retina, vitreous humour/lens and optic nerve were collected.\nBioanalysis of CDO was performed depending on the type of matrix. In the case of plasma, proteins were precipitated using methanol. In the case of tissues, samples were grinded in a Mini Bead Beater using zirconium beads and methanol/water (1:1) (v/v) as solvent. After centrifugation, samples were analyzed by UPLC-MS/MS.\nChromatographic separation was carried out using an Acquity CSH Fluoro Phenyl column (1.7 μm, 50×2.1 mm). Mobile phase consisted of a gradient using 0.1% formic acid in water and acetonitrile from 5% to 45% in 4.5 min at a flow rate of 0.6 ml/min.\nWith regard to the mass spectrometric detection, the electrospray ionization source worked to record negative ions. Multiple Reaction Monitoring (MRM) acquisition mode of the deprotonated molecular ions was performed. The transition monitored for CDO was m/z 189.0→80.1 with a cone voltage of 45 V and collision energy of 25 eV.",
  "key": {"[1]": {"settings": "cornea, topical eye 10 mg/ml (eye drop of 10 μl) = 0.1 mg, read-out: CDO concentrations Cornea"}, "[2]": {"settings": "cornea, topical eye 100 mg/ml (eye drop of 10 μl) = 1 mg, read-out: CDO concentrations Cornea"}, "[3]": {"settings": "optic nerve, oral 50 mg/Kg = 10 mg, read-out: CDO concentrations Optic nerve"}, "[4]": {"settings": "plasma, oral 200 mg/Kg = 40 mg, read-out: CDO concentrations Plasma"}, "[5]": {"settings": "plasma, oral 750 mg/Kg = 150 mg, read-out: CDO concentrations Plasma"}, "[6]": {"settings": "retina/choroid, topical eye 10 mg/ml (eye drop of 10 μl) = 0.1 mg, read-out: CDO concentrations Retina/Choroid"}, "[7]": {"settings": "retina, oral 200 mg/Kg = 40 mg, read-out: CDO concentrations Retina"}, "[8]": {"settings": "retina, oral 750 mg/Kg = 150 mg, read-out: CDO concentrations Retina"}, "[9]": {"settings": "retina, topical eye 100 mg/ml (eye drop of 10 μl) = 1 mg, read-out: CDO concentrations Retina"}, "[10]": {"settings": "sclera, topical eye 10 mg/ml (eye drop of 10 μl) = 0.1 mg, read-out: CDO concentrations Sclera"}, "[11]": {"settings": "sclera, topical eye 100 mg/ml (eye drop of 10 μl) = 1 mg, read-out: CDO concentrations Sclera"}},
  "note": "Where two headings read alike, the source gives them in different places.",
  "data": [
    {"smiles": "O=S(=O)(O)c1cc(O)ccc1O", "note": "[CDO, Calcium dobesilate monohydrate]", "values": [
      {"measurement": "concentration at 0.25 h", "setting": "[1]", "result": 4610, "unit": "ng/g"},
      {"measurement": "concentration at 1 h", "setting": "[1]", "result": 1010, "unit": "ng/g"},
      {"measurement": "concentration at 3 h", "setting": "[1]", "result": 1990, "unit": "ng/g"},
      {"measurement": "concentration at 0.25 h", "setting": "[2]", "result": 58000, "unit": "ng/g"},
      {"measurement": "concentration at 1 h", "setting": "[2]", "result": 1720, "unit": "ng/g"},
      {"measurement": "concentration at 3 h", "setting": "[2]", "result": 3110, "unit": "ng/g"},
      {"measurement": "concentration at 3 h", "setting": "[3]", "result": 1890, "unit": "ng/g"},
      {"measurement": "concentration at 6 h", "setting": "[3]", "result": 410, "unit": "ng/g"},
      {"measurement": "concentration at 0.25 h", "setting": "[4]", "result": 3100, "unit": "ng/g"},
      {"measurement": "concentration at 1 h", "setting": "[4]", "result": 9040, "unit": "ng/g"},
      {"measurement": "concentration at 3 h", "setting": "[4]", "result": 11400, "unit": "ng/g"},
      {"measurement": "concentration at 0.25 h", "setting": "[5]", "result": 12600, "unit": "ng/g"},
      {"measurement": "concentration at 1 h", "setting": "[5]", "result": 28800, "unit": "ng/g"},
      {"measurement": "concentration at 3 h", "setting": "[5]", "result": 47600, "unit": "ng/g"},
      {"measurement": "concentration at 0.25 h", "setting": "[6]", "result": 1830, "unit": "ng/g"},
      {"measurement": "concentration at 1 h", "setting": "[6]", "result": 600, "unit": "ng/g"},
      {"measurement": "concentration at 3 h", "setting": "[6]", "result": 2150, "unit": "ng/g"},
      {"measurement": "concentration at 0.25 h", "setting": "retina/choroid, topical eye 100 mg/ml (eye drop of 10 μl) = 1 mg, read-out: CDO concentrations Retina/Choroid", "result": 17600, "unit": "ng/g"},
      {"measurement": "concentration at 0.25 h", "setting": "[7]", "result": 110, "unit": "ng/g"},
      {"measurement": "concentration at 1 h", "setting": "[7]", "result": 470, "unit": "ng/g"},
      {"measurement": "concentration at 3 h", "setting": "[7]", "result": 1040, "unit": "ng/g"},
      {"measurement": "concentration at 0.25 h", "setting": "[8]", "result": 670, "unit": "ng/g"},
      {"measurement": "concentration at 1 h", "setting": "[8]", "result": 1340, "unit": "ng/g"},
      {"measurement": "concentration at 3 h", "setting": "[8]", "result": 2420, "unit": "ng/g"},
      {"measurement": "concentration at 0.25 h", "setting": "retina, topical eye 10 mg/ml (eye drop of 10 μl) = 0.1 mg, read-out: CDO concentrations Retina", "result": 100, "unit": "ng/g"},
      {"measurement": "concentration at 0.25 h", "setting": "[9]", "result": 2030, "unit": "ng/g"},
      {"measurement": "concentration at 1 h", "setting": "[9]", "result": 640, "unit": "ng/g"},
      {"measurement": "concentration at 3 h", "setting": "[9]", "result": 250, "unit": "ng/g"},
      {"measurement": "concentration at 6 h", "setting": "[9]", "result": 130, "unit": "ng/g"},
      {"measurement": "concentration at 0.25 h", "setting": "[10]", "result": 170, "unit": "ng/g"},
      {"measurement": "concentration at 1 h", "setting": "[10]", "result": 330, "unit": "ng/g"},
      {"measurement": "concentration at 3 h", "setting": "[10]", "result": 770, "unit": "ng/g"},
      {"measurement": "concentration at 0.25 h", "setting": "[11]", "result": 3540, "unit": "ng/g"},
      {"measurement": "concentration at 1 h", "setting": "[11]", "result": 1140, "unit": "ng/g"}
    ]}
  ]
}
